How the values were obtained:
[1] = system: NMNAT2; test: NMNAT2-Hibit nano-luciferase activity in transfected U87MG cells, 5 μM, 48 hours; assay type: cell-based; conditions: NMNAT2-Hibit luciferase plasmid, 48 hours (Table D)
Experimental: Selected compounds were tested in vitro. Briefly, U87MG cells were transfected with NMNAT2-Hibit luciferase plasmid. Cells were treated with test compound at 5 μM for 48 hours. Cells were then collected and assayed for nano-luciferase activity.

[2] = system: NMNAT2; test: NMNAT2-Hibit nano-luciferase activity in transfected U87MG cells, 25 μM, 24 hours; assay type: cell-based; conditions: NMNAT2-Hibit luc plasmid; for B: compound efficacy (IC50) for NMNAT2 activation; increase in NMNAT2 luciferase activity: 24 hours (Table B); for C: Compound efficacy for NMNAT2 activation; increase in NMNAT2 luciferase activity: 24 hours (Table C)
Experimental: Selected compounds were tested in vitro. Briefly, U87MG cells were transfected with NMNAT2-Hibit luc plasmid. Cells were treated with a test compound at 25 μM for 24 hours. Cells were then collected and assayed for nano-luciferase activity.

SMILES	D: compound efficacy for NMNAT2 activation; increase in NMNAT2 luciferase activity [1]	other results
COc1ccc(C(CC(=O)NCc2ccco2)c2cn(Cc3ccc(C)cc3)c3ccccc23)cc1 (stereo not shown) [BC181261]	++ (“++” >20% and <100% increase in NMNAT2 luciferase activity.)	
O=C(Cn1cc(C(=O)C2CCCCC2)c2ccccc21)NCCc1ccccc1 [BC181222]	++ (“++” >20% and <100% increase in NMNAT2 luciferase activity.)	
CCN(CC)C(=O)C(=O)c1cn(CC(=O)NCCc2ccccc2)c2ccccc12 [BC181227]	+ (“+” <20% increase in NMNAT2 luciferase activity.)	
CC(NC(=O)Cn1cc(C(=O)c2ccccc2)c2ccccc21)c1ccccc1 (stereo not shown) [BC181224]	+ (“+” <20% increase in NMNAT2 luciferase activity.)	
Cc1ccc(Cn2cc(CCCC(=O)NCc3ccco3)c3ccccc32)cc1 [BC181230]	+++ (“+++” >100% increase in NMNAT2 luciferase activity.)	
CCn1cc(CCCC(=O)NCc2ccc(F)cc2)c2ccccc21 [BC181229]	++ (“++” >20% and <100% increase in NMNAT2 luciferase activity.)	
O=C(Cn1cc(C(=O)c2ccncc2)c(=O)c2cc(Br)ccc21)NCc1ccccc1 [BC181256]	+ (“+” <20% increase in NMNAT2 luciferase activity.)	
CC1CCN(C(=O)Cn2cc(C(=O)c3ccccc3)c3ccccc32)CC1 [BC181205]	+ (“+” <20% increase in NMNAT2 luciferase activity.)	
Cc1ccccc1Cn1cc(CCCC(=O)NCc2ccco2)c2ccccc21 [BC181235]	++ (“++” >20% and <100% increase in NMNAT2 luciferase activity.)	
COc1ccc(NC(=O)Cn2cc(C(=O)c3ccccc3)c3ccccc32)cc1 [BC181213]	+ (“+” <20% increase in NMNAT2 luciferase activity.)	
Cc1ccccc1Cn1cc(CCC(=O)NCc2ccco2)c2ccccc21 [BC181243]	++ (“++” >20% and <100% increase in NMNAT2 luciferase activity.)	
Cc1ccc(C)c(Cn2cc(CCC(=O)NCc3ccco3)c3ccccc32)c1 [BC181245]	++ (“++” >20% and <100% increase in NMNAT2 luciferase activity.)	
O=C(Cn1cc(C(=O)c2ccccc2)c2ccccc21)NCC1=CC=CC1 [BC181207]	++ (“++” >20% and <100% increase in NMNAT2 luciferase activity.)	
CC(=O)c1cn(CC(=O)NCc2ccc(C)cc2)c2ccccc12 [BC181267]	+ (“+” <20% increase in NMNAT2 luciferase activity.)	
Cc1ccccc1Cn1cc(CCC(=O)NCC2=CC=CC2)c2ccccc21 [BC181242]	+ (“+” <20% increase in NMNAT2 luciferase activity.)	
O=C(Cn1cc(C(=O)C2CC2)c2ccccc21)NCc1ccco1 [BC181202]	+ (“+” <20% increase in NMNAT2 luciferase activity.)	
CCCNC(=O)CCCc1cn(Cc2ccc(C)cc2)c2ccccc12 [BC181233]	+ (“+” <20% increase in NMNAT2 luciferase activity.)	
O=C(Cn1cc(C(=O)C2CCCCC2)c2ccccc21)NCc1ccco1 [BC181220]	+++ (“+++” >100% increase in NMNAT2 luciferase activity.)	
O=C(Cn1cc(C(=O)C2=CC=CC2)c2ccccc21)NCc1ccccc1 [BC181204]	++ (“++” >20% and <100% increase in NMNAT2 luciferase activity.)	
Cc1ccccc1Cn1cc(CCC(=O)NCc2ccco2)c2ccccc21 [BC181237]	++ (“++” >20% and <100% increase in NMNAT2 luciferase activity.)	
Cc1ccccc1Cn1cc(CCC(=O)NCC2=CC=CC2)c2ccccc21 [BC181244]	++ (“++” >20% and <100% increase in NMNAT2 luciferase activity.)	
Cc1ccc(Cn2cc(C(CC(=O)NCc3ccco3)c3cccc(C)c3)c3ccccc32)cc1 (stereo not shown) [BC181259]	++ (“++” >20% and <100% increase in NMNAT2 luciferase activity.)	
Cc1ccc(Cn2cc(CCCC(=O)NCc3ccco3)c3ccccc32)cc1 [BC181231]	++ (“++” >20% and <100% increase in NMNAT2 luciferase activity.)	
O=C(Cn1cc(C(=O)C2CCCCC2)c2ccccc21)NCc1ccccc1 [BC181221]	+ (“+” <20% increase in NMNAT2 luciferase activity.)	
CC(=O)c1cn(CC(=O)NCCn2ccc3ccc(C)cc32)c2ccccc12 [BC181268]	++ (“++” >20% and <100% increase in NMNAT2 luciferase activity.)	
Cc1ccc(Cn2cc(C(CC(=O)NCc3ccco3)c3ccc(C)cc3)c3ccccc32)cc1 (stereo not shown) [BC181258]	++ (“++” >20% and <100% increase in NMNAT2 luciferase activity.)	

SMILES	D: compound efficacy for NMNAT2 activation; increase in NMNAT2 luciferase activity [1]	other results
Cc1cc2c(=O)c(C(=O)c3ccncc3)cn(CC(=O)NCc3ccccc3)c2cc1C [BC181254]	++ (“++” >20% and <100% increase in NMNAT2 luciferase activity.)	
O=C(Cn1cc(C(=O)c2ccccc2)c2ccccc21)NCc1ccc2c(c1)OCCCO2 [BC181257]	+ (“+” <20% increase in NMNAT2 luciferase activity.)	
CC1CCCC(C)N1C(=O)Cn1cc(C(=O)c2ccccc2)c2ccccc21 (stereo not shown) [BC181219]	++ (“++” >20% and <100% increase in NMNAT2 luciferase activity.)	
Cc1ccc(Cn2cc(C(CC(=O)NCc3ccco3)c3ccc(C)cc3)c3ccccc32)cc1 (stereo not shown) [BC181262]	++ (“++” >20% and <100% increase in NMNAT2 luciferase activity.)	
O=C(Cn1cc(C(=O)c2ccccc2)c2ccccc21)NCc1ccco1 [BC181206]	++ (“++” >20% and <100% increase in NMNAT2 luciferase activity.)	
CC1CCCCN1C(=O)Cn1cc(C(=O)c2ccccc2)c2ccccc21 (stereo not shown) [BC181218]	+ (“+” <20% increase in NMNAT2 luciferase activity.)	
COc1ccc(NC(=O)NCc2noc3ccc(C)cc23)cc1Cl [Compound 181041]		B: compound efficacy (IC50) for NMNAT2 activation; increase in NMNAT2 luciferase activity [2]: + (“+” <20% increase in NMNAT2 luciferase activity.)
CCc1cccc2c(C(=O)C(F)(F)F)cn(CC(=O)NCc3ccco3)c12 [Compound 181102]		C: Compound efficacy for NMNAT2 activation; increase in NMNAT2 luciferase activity [2]: + (“+” <20% increase in NMNAT2 luciferase activity.)
O=C(Cn1ccc2cc(Br)ccc21)NCc1ccco1 [Compound 181149]		C: Compound efficacy for NMNAT2 activation; increase in NMNAT2 luciferase activity [2]: ++ (“++” >20% and <100% increase in NMNAT2 luciferase activity.)
Cc1cc(Br)ccc1NC(=O)NCc1noc2ccccc12 [Compound 181007]		B: compound efficacy (IC50) for NMNAT2 activation; increase in NMNAT2 luciferase activity [2]: + (“+” <20% increase in NMNAT2 luciferase activity.)
Cc1ccc(CNC(=O)NCc2noc3ccc(C)cc23)cc1 [Compound 181069]		B: compound efficacy (IC50) for NMNAT2 activation; increase in NMNAT2 luciferase activity [2]: ++ (“++” >20% and <100% increase in NMNAT2 luciferase activity.)
Cc1ccc2onc(CNC(=O)NC3CC3)c2c1 [Compound 181063]		B: compound efficacy (IC50) for NMNAT2 activation; increase in NMNAT2 luciferase activity [2]: + (“+” <20% increase in NMNAT2 luciferase activity.)
Cc1ccc2onc(CNC(=O)NC(C)c3ccccc3)c2c1 (stereo not shown) [Compound 181090]		B: compound efficacy (IC50) for NMNAT2 activation; increase in NMNAT2 luciferase activity [2]: + (“+” <20% increase in NMNAT2 luciferase activity.)
Cc1ccc(Cn2cc(CCC(=O)NCc3ccco3)c3ccccc32)cc1 [Compound 181116]		C: Compound efficacy for NMNAT2 activation; increase in NMNAT2 luciferase activity [2]: ++ (“++” >20% and <100% increase in NMNAT2 luciferase activity.)
O=C(Cn1ccc2ccccc21)NCc1ccc(F)cc1 [Compound 181148]		C: Compound efficacy for NMNAT2 activation; increase in NMNAT2 luciferase activity [2]: ++ (“++” >20% and <100% increase in NMNAT2 luciferase activity.)
Cc1ccc2onc(CNC(=O)NCCc3ccc(Cl)cc3)c2c1 [Compound 181059]		B: compound efficacy (IC50) for NMNAT2 activation; increase in NMNAT2 luciferase activity [2]: + (“+” <20% increase in NMNAT2 luciferase activity.)
Cc1ccc(N(C)C(=O)NCc2noc3ccccc23)cc1C [Compound 181014]		B: compound efficacy (IC50) for NMNAT2 activation; increase in NMNAT2 luciferase activity [2]: + (“+” <20% increase in NMNAT2 luciferase activity.)
CCc1ccccc1NC(=O)NCc1noc2ccccc12 [Compound 181024]		B: compound efficacy (IC50) for NMNAT2 activation; increase in NMNAT2 luciferase activity [2]: + (“+” <20% increase in NMNAT2 luciferase activity.)
COc1ccc(NC(=O)NCc2noc3ccccc23)cc1 [Compound 181026]		B: compound efficacy (IC50) for NMNAT2 activation; increase in NMNAT2 luciferase activity [2]: + (“+” <20% increase in NMNAT2 luciferase activity.)
Cc1ccc2onc(CNC(=O)Nc3ccc(F)c(Cl)c3)c2c1 [Compound 181040]		B: compound efficacy (IC50) for NMNAT2 activation; increase in NMNAT2 luciferase activity [2]: + (“+” <20% increase in NMNAT2 luciferase activity.)
Cc1ccc2onc(CNC(=O)NC3CCCCC3C)c2c1 (stereo not shown) [Compound 181085]		B: compound efficacy (IC50) for NMNAT2 activation; increase in NMNAT2 luciferase activity [2]: + (“+” <20% increase in NMNAT2 luciferase activity.)
Cc1ccc2onc(CNC(=O)Nc3cccc(C(F)(F)F)c3)c2c1 [Compound 181037]		B: compound efficacy (IC50) for NMNAT2 activation; increase in NMNAT2 luciferase activity [2]: + (“+” <20% increase in NMNAT2 luciferase activity.)
Cc1cc(C)cc(NC(=O)NCc2noc3ccc(C)cc23)c1 [Compound 181091]		B: compound efficacy (IC50) for NMNAT2 activation; increase in NMNAT2 luciferase activity [2]: + (“+” <20% increase in NMNAT2 luciferase activity.)
O=C(Cn1ccc2ccc(F)cc21)NCc1ccco1 [Compound 181152]		C: Compound efficacy for NMNAT2 activation; increase in NMNAT2 luciferase activity [2]: + (“+” <20% increase in NMNAT2 luciferase activity.)
COc1ccc(CNC(=O)Cn2c(C)cc(C)c(C#N)c2=O)cc1OC [Compound 181127]		C: Compound efficacy for NMNAT2 activation; increase in NMNAT2 luciferase activity [2]: + (“+” <20% increase in NMNAT2 luciferase activity.)
CCc1ccc(NC(=O)NCc2noc3ccccc23)cc1 [Compound 181009]		B: compound efficacy (IC50) for NMNAT2 activation; increase in NMNAT2 luciferase activity [2]: + (“+” <20% increase in NMNAT2 luciferase activity.)

Source: patent US20220169632A1, “METHODS AND MATERIALS FOR INCREASING OR MAINTAINING NICOTINAMIDE MONONUCLEOTIDE ADENYLYL TRANSFERASE-2 (NMNAT2) POLYPEPTIDE LEVELS” (University of Pittsburgh - Of the Commonwealth System of …, priority 2019, published 2022)
